Laboratory results as given in BindingDB's records for doi:10.7270/Q2222S6W (University of Pittsburgh, 2007).
Where a name gives a salt, the structure may show the parent alone.

What follows are compounds tested against Genome polyprotein (West Nile virus, UniProt P06935) (assay: West Nile NS2B-NS3 proteinase blockers – biochemical, confirmation, dose response (AID 653)).
Sequence of Genome polyprotein (P06935 1371-1501 limits assumed): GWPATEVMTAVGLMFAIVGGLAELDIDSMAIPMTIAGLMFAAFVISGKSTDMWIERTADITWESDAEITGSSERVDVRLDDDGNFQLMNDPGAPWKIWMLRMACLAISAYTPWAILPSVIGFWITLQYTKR
Sequence of Genome polyprotein (P06935 1502-2120 limits assumed): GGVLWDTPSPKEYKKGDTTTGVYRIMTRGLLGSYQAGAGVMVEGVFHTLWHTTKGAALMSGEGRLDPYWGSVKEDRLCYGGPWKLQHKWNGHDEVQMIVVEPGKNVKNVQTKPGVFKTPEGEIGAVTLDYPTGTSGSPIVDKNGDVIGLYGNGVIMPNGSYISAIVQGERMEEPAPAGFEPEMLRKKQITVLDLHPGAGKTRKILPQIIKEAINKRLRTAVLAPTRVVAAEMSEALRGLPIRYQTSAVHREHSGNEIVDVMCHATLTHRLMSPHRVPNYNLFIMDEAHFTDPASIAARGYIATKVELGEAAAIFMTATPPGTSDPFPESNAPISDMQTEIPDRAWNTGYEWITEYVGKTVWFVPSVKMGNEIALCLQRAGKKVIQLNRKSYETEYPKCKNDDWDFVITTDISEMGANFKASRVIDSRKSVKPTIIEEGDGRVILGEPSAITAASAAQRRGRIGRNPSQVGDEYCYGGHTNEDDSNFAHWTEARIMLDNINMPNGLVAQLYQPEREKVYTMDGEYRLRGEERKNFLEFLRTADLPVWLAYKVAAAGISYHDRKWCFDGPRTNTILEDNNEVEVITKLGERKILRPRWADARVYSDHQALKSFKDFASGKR

Point of comparison: Nc1cc(OC(=O)c2cccs2)nn1S(=O)(=O)c1ccc(F)cc1 [5-amino-1-[(4-fluorophenyl)sulfonyl]-1H-pyrazol-3-yl thiophene-2-carboxylate], IC50 1.16 µM. Against it:
- COc1ccc(C2CC(c3cccc(C)c3)n3ncnc3N2)cc1 (stereo not drawn) [5-(4-methoxyphenyl)-7-(3-methylphenyl)-1,5,6,7-tetrahydro-[1,2,4]triazolo[1,5-a]pyrimidine] — higher, > 50 µM
- Cc1ccccc1S(=O)(=O)Cc1ccc(C(=O)NCCCOC(C)C)o1 [5-[(2-methylphenyl)sulfonylmethyl]-N-(3-propan-2-yloxypropyl)-2-furancarboxamide] — higher, > 50 µM
- C=CCC1(CN2CCCCCC2=O)C(=O)NC(=O)NC1=O [5-[(2-oxidanylideneazepan-1-yl)methyl]-5-prop-2-enyl-1,3-diazinane-2,4,6-trione] — higher, > 50 µM
- COc1ccc(Br)cc1C=c1sc2nc(-c3ccco3)nn2c1=O [5-[(5-bromanyl-2-methoxy-phenyl)methylidene]-2-(furan-2-yl)-[1,3]thiazolo[3,2-b][1,2,4]triazol-6-one] — higher, > 50 µM
- COC(=O)c1ccc(CSc2nnc(SCc3ccc(C(=O)OC)o3)s2)o1 [5-[[[5-[(5-carbomethoxy-2-furyl)methylthio]-1,3,4-thiadiazol-2-yl]thio]methyl]furan-2-carboxylic acid methyl ester] — higher, > 50 µM
- CCOC(=O)c1c(C)n(C)c2ccc(OC)c(NC(=O)CN3CCCCC3)c12 [5-methoxy-1,2-dimethyl-4-[(2-piperidinoacetyl)amino]indole-3-carboxylic acid ethyl ester] — higher, > 50 µM
- Cn1c2ccccc2c2nn(-c3ccccc3)c(=O)cc21 [5-methyl-2-phenyl-3-pyridazino[4,3-b]indolone] — higher, > 50 µM
- COc1ccc(-c2cn3ccsc3n2)cc1 [6-(4-methoxyphenyl)imidazo[2,1-b][1,3]thiazole] — higher, > 50 µM
- COc1ccc2c3c(cccc13)NN=C2C [6-Methoxy-3-methyl-1H-benzo[de]cinnoline] — 8.7-fold higher, 10.1 µM
- Cc1csc2nc(CNC(=O)C3CC=CCC3C(=O)O)cn12 (stereo not drawn) [6-[(3-methylimidazo[2,1-b][1,3]thiazol-6-yl)methylcarbamoyl]cyclohex-3-ene-1-carboxylic acid] — higher, > 50 µM
- COc1cc(C2CC(C(F)(F)F)n3ncc(C(=O)O)c3N2)cc(OC)c1OC (stereo not drawn) [7-(trifluoromethyl)-5-(3,4,5-trimethoxyphenyl)-1,5,6,7-tetrahydropyrazolo[1,5-a]pyrimidine-3-carboxylic acid] — higher, > 50 µM
- Cc1oc2c(CN(C)C)c(O)ccc2c(=O)c1-c1ccc2ccccc2n1 [8-[(dimethylamino)methyl]-2-methyl-7-oxidanyl-3-quinolin-2-yl-chromen-4-one] — higher, > 50 µM
- CN1CCN(CC(=O)N2c3ccccc3C(=O)Nc3cccnc32)CC1 [11-[(4-methylpiperazin-1-yl)acetyl]-5,11-dihydro-6H-pyrido[2,3-b][1,4]benzodiazepin-6-one] — higher, > 50 µM
- CCN1CCN(C(=O)C2c3cc(OC)c(OC)cc3C(=O)N3CCc4ccccc4C23)CC1 (stereo not drawn) [13-(4-ethylpiperazin-1-yl)carbonyl-10,11-dimethoxy-5,6,13,13a-tetrahydroisoquinolino[2,1-b]isoquinolin-8-one] — higher, > 50 µM
- COc1cc(C=CC(=O)CC(=O)C=Cc2ccc(O)c(OC)c2)ccc1O [(1E,6E)-1,7-bis(4-hydroxy-3-methoxyphenyl)hepta-1,6-diene-3,5-dione] — higher, > 50 µM
- Cc1nn(-c2ccccc2)c2sc(C(=O)OC3CCOC3=O)cc12 (stereo not drawn) [(2-oxidanylideneoxolan-3-yl) 3-methyl-1-phenyl-thieno[2,3-c]pyrazole-5-carboxylate] — higher, > 50 µM
- CCCCc1oc2ccccc2c1C(=O)c1cc(I)c(OCCN(CC)CC)c(I)c1 [(2-{4-[(2-butyl-1-benzofuran-3-yl)carbonyl]-2,6-diiodophenoxy}ethyl)diethylamine] — higher, > 50 µM
- CN(C)/C=C1/Sc2ccccc2C1=O [(2E)-2-(dimethylaminomethylene)benzothiophen-3-one] — higher, > 50 µM
- CCCCOCCCNC(=O)N[C@@H](CC(C)C)C(=O)O [(2S)-2-(3-butoxypropylcarbamoylamino)-4-methyl-pentanoic acid] — higher, > 50 µM
- CNC(=O)Oc1ccc2c(c1)[C@]1(C)CCN(C)[C@@H]1N2C [(3aS,8aR)-1,3a,8-trimethyl-1H,2H,3H,3aH,8H,8aH-pyrrolo[2,3-b]indol-5-yl N-methylcarbamate; 2-hydroxybenzoic acid] — higher, > 50 µM
- COP(=O)(OC)C(O)C(Cl)(Cl)Cl (stereo not drawn) [(+-)-Trichlorfon] — higher, > 50 µM
- N#[N+][CH-]C(=O)OCC(N)C(=O)O [(E)-1-[(2S)-2-amino-2-carboxy-ethoxy]-2-diazonio-ethenolate] — higher, > 50 µM
- COc1ccc(/C=C(/C#N)c2cccnc2)cc1OC [(E)-3-(3,4-dimethoxyphenyl)-2-(3-pyridinyl)-2-propenenitrile] — higher, > 50 µM
- CCCCC[C@H](O)C=C[C@H]1C=CC(=O)[C@@H]1C/C=C\CCCC(=O)O [(Z)-7-[(1R,5S)-2-oxidanylidene-5-[(E,3S)-3-oxidanyloct-1-enyl]cyclopent-3-en-1-yl]hept-5-enoic acid] — higher, > 50 µM
- CN(C)c1nc(N(C)C)nc(N(C)C)n1 [ALTRETAMINE] — higher, > 50 µM
- CCCC(CCC)C(=O)OC1C[C@H]2CC[C@@H](C1)[N+]2(C)C (stereo partly drawn) [ANISOTROPINE METHYLBROMIDE] — higher, > 50 µM
- COc1ccc(S(=O)(=O)n2nc(OC(=O)c3ccccc3)cc2N)cc1 [Benzoic acid 5-amino-1-(4-methoxy-benzenesulfonyl)-1H-pyrazol-3-yl ester] — 11-fold lower, 0.105 µM
- CCn1nc(C(=O)O)c(=O)c2cc3c(cc21)OCO3 [CINOXACIN] — higher, > 50 µM
- CC[N+](C)(C)c1cccc(O)c1 [Edrophonium Chloride, 3] — higher, > 50 µM
- O=C(c1ccco1)N(CCCN1CCOCC1)c1nc(-c2ccc(Cl)cc2)cs1 [Furan-2-carboxylic acid [4-(4-chloro-phenyl)-thiazol-2-yl]-(3-morpholin-4-yl-propyl)-amide] — higher, > 50 µM
- NS(=O)(=O)c1cc2c(cc1Cl)N=CNS2(=O)=O [MLS000028398] — higher, > 50 µM
- Cc1cccc(N(C)C(=S)Oc2ccc3ccccc3c2)c1 [MLS000028526] — higher, > 50 µM
- CC(C)(S)[C@@H](N)C(=O)O [MLS000028669] — higher, > 50 µM
- CCC(=O)O[C@]1(C(=O)CCl)[C@@H](C)C[C@H]2[C@@H]3CCC4=CC(=O)C=C[C@]4(C)[C@@]3(F)[C@@H](O)C[C@@]21C [MLS000028708] — higher, > 50 µM
- CCOc1ccccc1N(CC(=O)NC1CCCC1)C(=O)CCC(=O)Nc1cc(C)on1 [MLS000032086] — higher, > 50 µM
- COc1ccccc1-n1c(C)nnc1SCC(=O)Nc1cc(C)cc(C)c1 [MLS000032151] — higher, > 50 µM
- Cc1ccc(S(=O)(=O)n2nc(OC(=O)c3ccco3)cc2N)cc1 [MLS000033865] — 12-fold higher, 14.4 µM
- COc1ccc(S(=O)(=O)n2nc(OC(=O)c3ccco3)cc2N)cc1 [MLS000033887] — 2.1-fold lower, 0.553 µM
- CC(=O)Nc1nc2ccccc2n1CCOc1ccccc1Cl [MLS000034055] — higher, > 50 µM
- Cc1ccc(OCC(=O)Nc2ccc(-c3nnc(-c4ccco4)o3)cc2)cc1 [MLS000039074] — higher, > 50 µM
- COc1ccc(C2C3=C(CC(C)(C)CC3=O)Oc3ncn4nc(-c5cccnc5)nc4c32)cc1OC (stereo not drawn) [MLS000040750] — higher, > 50 µM
- CCn1c(SCC(=O)Nc2ccc3c(c2)c2ccccc2n3CC)nnc1-c1ccco1 [MLS000050867] — 41-fold higher, 47.7 µM
- CCS(=O)(=O)N1Cc2ccccc2CC1C(=O)N1CCN(c2cccc(C)c2C)CC1 (stereo not drawn) [MLS000053522] — 33-fold higher, 38.6 µM
- CCN(CC(=O)Nc1ccccc1OC)C(=O)C1CC2C=CC1C2 (stereo not drawn) [MLS000053693] — higher, > 50 µM
- Cc1sc2nc3c4ccccc4c(NCc4ccco4)nn3c(=O)c2c1C [MLS000056809] — higher, > 50 µM
- CCN(Cc1ccccc1)C(=O)c1ccccc1C [MLS000058902] — higher, > 50 µM
- Cn1nnc2cc(C(=O)NC3CCCCC3)ccc21 [MLS000063766] — higher, > 50 µM
- Nc1ccc(S(=O)(=O)Nc2ccccn2)cc1 [MLS000069725] — higher, > 50 µM
- COc1ccc(OC)c(NS(=O)(=O)c2cccs2)c1 [MLS000070319] — higher, > 50 µM
- COc1ccc2nc(NC(=O)CSc3nc4cccnc4n3C)sc2c1 [MLS000072990] — higher, > 50 µM
- CCCn1c(SCC(=O)Nc2ccc3c(c2)OCCO3)nnc1-c1ccco1 [MLS000073448] — higher, > 50 µM
- COC(=O)c1[nH]c2cc(OC)ccc2c1NC(=O)c1ccc2c(c1)OCO2 [MLS000081144] — higher, > 50 µM
- CCN1CCN(CNC(=O)c2cnccn2)CC1 [MLS000082173] — higher, > 50 µM
- O=S(=O)(c1ccc(F)cc1)N(CCO)CC(O)Cn1c2ccccc2c2ccccc21 (stereo not drawn) [MLS000088265] — higher, > 50 µM
- Cc1ccc(Cl)cc1NC(=O)c1ocnc1C [MLS000092879] — higher, > 50 µM
- COc1ccc(N2CCN(C(CNC(=O)Oc3ccccc3)c3cccnc3)CC2)cc1 (stereo not drawn) [MLS000094397] — higher, > 50 µM
- CC(C)CCN1CC(C(=O)NCc2ccc(F)cc2)CC1=O (stereo not drawn) [MLS000096189] — higher, > 50 µM
- COc1ccc(C(=O)c2oc3ccc(Br)cc3c2NC(C)=O)cc1 [MLS000115316] — higher, > 50 µM
- Cc1ccc(NC(=O)C2C3CC4OC(=O)C2C4C3)cc1Cl (stereo not drawn) [N-(3-chloro-4-methylphenyl)-5-oxo-4-oxatricyclo[4.2.1.0~3,7~]nonane-9-carboxamide] — higher, > 50 µM
- CCN1CCN(C(=O)N[C@@H](C(=O)N[C@@H]2C(=O)N3[C@@H]2SC(C)(C)[C@@H]3C(=O)O)c2ccccc2)C(=O)C1=O [PIPERACILLIN SODIUM SALT] — higher, > 50 µM
- O=C(OC1CCCCC1)c1ccc2c(c1)C1C=CCC1C(C(=O)O)N2 (stereo not drawn) [SMR000019385] — higher, > 50 µM
- Nc1cc(OC(=O)c2cccs2)nn1S(=O)(=O)c1ccccc1 [SMR000021562] — 2.1-fold higher, 2.38 µM
- OCCNC1=NCCN1 [SMR000038385] — higher, > 50 µM
- NC(=O)NC1CCCc2c1[nH]c1ccc(Cl)cc21 (stereo not drawn) [SMR000091683] — higher, > 50 µM
- Cc1cc(OC(=O)c2ccccc2)n(CCC#N)n1 [[2-(2-cyanoethyl)-5-methyl-pyrazol-3-yl] benzoate] — within 1.5-fold, 1.35 µM
- Nc1ncnc2c1ncn2[C@@H]1O[C@H](CO)[C@@H](O)[C@H]1O [[U-14C]adenosine] — higher, > 50 µM
- COC(=O)CSC1=NC2=C(C(=O)CCC2)C(c2ccc(C)cc2)C1C#N (stereo not drawn) [methyl 2-[[3-cyano-4-(4-methylphenyl)-5-oxo-4,6,7,8-tetrahydro-1H-quinolin-2-yl]sulfanyl]acetate] — higher, > 50 µM
